Data as given in patent publication US9451774B2, “Paddy rice seed treated by herbicidal composition and method for controlling weed” (MITSUI CHEMICALS AGRO, INC., priority 2013, dated 2016).

Key:
[1] = tested on: Scirpus juncoides Roxb.; assay: Test Example 6: pot test, herbicide-treated seed, growth inhibition; type: in vivo; conditions: 20 days after sowing, dosage a.i. g per 1 kg of seeds: Pyrimisulfan 0.5, Pyriminobac-methyl 1.5, Butachlor 1.25
Text: (§3) In 100 cm^2 of a pot was filled a paddy field soil, and after paddling, seeds of Echinochloa oryzicola and Scirpus juncoides Roxb. were sown and mixed into the surface layer of the soil. Paddy rice seeds (variety: Nipponbare) sprouted into a pigeon breast shape were dust-coated with a predetermined amount of wettable powder each prepared according to Preparation examples 5, 6 and 9, and were sown onto the surface of the soil or into the soil (depth: 1 cm) at an amount of 10 grains/pot. After the sowing, water was introduced quietly and flooded up to 1 cm. After 20 days from the sowing, a growth inhibition rate was judged according to the above-mentioned judgement criteria.

[2] = tested on: Echinochloa oryzicola; assay: as above; type: in vivo; conditions: 20 days after sowing, dosage a.i. g per 1 kg of seeds: Pyrimisulfan 0.5, Pyriminobac-methyl 1.5, Butachlor 1.25
Text: as §3

[3] = tested on: Echinochloa oryzicola; assay: Test Example 7: pot test, seed dust-coated with COMMAND3ME, growth inhibition; type: in vivo; conditions: Surface sowing; 21 days after sowing; dosage 2.5 a.i. g per 1 kg of seeds (as COMMAND3ME)
Text: In 100 cm^2 of a pot was filled a paddy field soil, and after paddling, seeds of Echinochloa oryzicola was sown and mixed into the surface layer of the soil. Paddy rice seeds (variety: Nipponbare) sprouted into a pigeon breast shape were dust-coated with a predetermined amount of COMMAND3ME™ (clomazone: 31.4%, available from FMC Corporation), and were sown onto the surface of the soil at an amount of 10 grains/pot. After the sowing, water was introduced quietly and flooded up to 1 cm. After 21 days from the sowing, a growth inhibition rate was judged according to the above-mentioned judgement criteria.

[4] = tested on: Monochoria vaginalis; assay: Test Example 1: pot test, herbicide-treated paddy rice seed, growth inhibition; type: in vivo; conditions: 30 days after sowing, dosage a.i. g per 1 kg of seeds: Pyrazolate 150, Compound (I) 37.5, Thenylchlor 0.63
Text: (§1) In 100 cm^2 of a pot was filled a paddy field soil, and after paddling, seeds of Monochoria vaginalis and Lindernia procumbens were sown and mixed into the surface layer of the soil. Paddy rice seeds (variety: Nipponbare) sprouted into a pigeon breast shape were dust-coated with a predetermined amount of wettable powder each prepared according to Preparation examples 1, 2 and 7, and were sown onto the surface of the soil or into the soil (depth: 1 cm) at an amount of 10 grains/pot. After the sowing, water was introduced quietly and flooded up to 1 cm. After 30 days from the sowing, a growth inhibition rate was judged according to the following judgement criteria.

[5] = tested on: Lindernia procumbens; assay: as above; type: in vivo; conditions: 30 days after sowing, dosage a.i. g per 1 kg of seeds: Pyrazolate 150, Compound (I) 37.5, Thenylchlor 0.63
Text: as §1

[6] = tested on: Paddy rice (variety: Koshihikari); assay: Test Example 2: pot test, iron powder-coated seed, growth inhibition of the paddy rice; type: in vivo; conditions: surface sowing, 21 days after sowing, dosage a.i. g per 1 kg of seeds: Pyrazolate 150, Compound (I) 38, Sulcotrione 1.0, Imazosulfuron 1.0
Protocol: (§2) Also, paddy rice seeds (variety: Koshihikari) dipped in 20° C. of water for 2 days were dust-coated with a mixture of iron powder and calcined gypsum (a mixing ratio of 10:1) with an amount of 100 g per 1 kg of the seeds (dried unhulled rice) to prepare iron powder-coated seeds.

[7] = tested on: Monochoria vaginalis; assay: Test Example 2: pot test, iron powder-coated herbicide-treated seed, growth inhibition; type: in vivo; conditions: surface sowing, 21 days after sowing, dosage a.i. g per 1 kg of seeds: Pyrazolate 150, Compound (I) 38, Sulcotrione 1.0, Imazosulfuron 1.0
Protocol: as §2

[8] = tested on: Lindernia procumbens; assay: as above; type: in vivo; conditions: surface sowing, 21 days after sowing, dosage a.i. g per 1 kg of seeds: Pyrazolate 150, Compound (I) 38, Sulcotrione 1.0, Imazosulfuron 1.0
Protocol: as §2

[9] = tested on: Paddy rice (variety: Nipponbare); assay: Test Example 1: pot test, growth inhibition (chemical damage) of the paddy rice; type: in vivo; conditions: 30 days after sowing, dosage a.i. g per 1 kg of seeds: Pyrazolate 150, Compound (I) 37.5, Thenylchlor 0.63
Text: as §1

[10] = tested on: Scirpus juncoides Roxb.; assay: Test Example 5: pot test, herbicide-treated seed, growth inhibition; type: in vivo; conditions: 20 days after sowing, dosage a.i. g per 1 kg of seeds: Sulcotrione 1.0, Imazosulfuron 1.0, Oxadiargyl 0.15
Text: (§4) In 100 cm^2 of a pot was filled a paddy field soil, and after paddling, seeds of Lindernia procumbens and Scirpus juncoides Roxb. were sown and mixed into the surface layer of the soil. Paddy rice seeds (variety: Nipponbare) sprouted into a pigeon breast shape were dust-coated with a predetermined amount of wettable powder each prepared according to Preparation examples 3, 4 and 8, and were sown onto the surface of the soil or into the soil (depth: 1 cm) at an amount of 10 grains/pot. After the sowing, water was introduced quietly and flooded up to 1 cm. After 20 days from the sowing, a growth inhibition rate was judged according to the following judgement criteria.

[11] = tested on: Lindernia procumbens; assay: as above; type: in vivo; conditions: 20 days after sowing, dosage a.i. g per 1 kg of seeds: Sulcotrione 1.0, Imazosulfuron 1.0, Oxadiargyl 0.15
Text: as §4

[12] = tested on: Paddy rice (variety: Nipponbare); assay: Test Example 6: pot test, growth inhibition of the paddy rice; type: in vivo; conditions: 20 days after sowing, dosage a.i. g per 1 kg of seeds: Pyrimisulfan 0.5, Pyriminobac-methyl 1.5, Butachlor 1.25
Text: as §3

[13] = tested on: Echinochloa oryzicola; assay: Test Example 3: pot test, iron powder-coated herbicide-treated seed, growth inhibition; type: in vivo; conditions: surface sowing, 22 days after sowing, dosage a.i. g per 1 kg of seeds: Pyrimisulfan 0.5, Pyriminobac-methyl 1.5
Protocol: as §2

[14] = tested on: Scirpus juncoides Roxb.; assay: as above; type: in vivo; conditions: surface sowing, 22 days after sowing, dosage a.i. g per 1 kg of seeds: Pyrimisulfan 0.5, Pyriminobac-methyl 1.5
Protocol: as §2

[15] = tested on: Paddy rice (variety: Koshihikari); assay: Test Example 3: pot test, iron powder-coated seed, growth inhibition of the paddy rice; type: in vivo; conditions: surface sowing, 22 days after sowing, dosage a.i. g per 1 kg of seeds: Pyrimisulfan 0.5, Pyriminobac-methyl 1.5
Protocol: as §2

[16] = tested on: Monochoria vaginalis; assay: Test Example 10: pot test, seed treated with herbicide with or without dymron, growth inhibition; type: in vivo; conditions: Surface sowing; 20 days after sowing; dosage a.i. g per 1 kg of seeds: Pyrimisulfan + Dymron 1 + 40, Pyrimisulfan 1
Text: as §1, with “5” for “1, 2”, “11,” for “7,”, “soil” for “soil or into the soil (depth: 1 cm)”, “20” for “30”, “above-mentioned” for “following”

[17] = tested on: Lindernia procumbens; assay: as above; type: in vivo; conditions: Surface sowing; 20 days after sowing; dosage a.i. g per 1 kg of seeds: Pyrimisulfan + Dymron 1 + 40, Pyrimisulfan 1
Text: as §1, with “5” for “1, 2”, “11,” for “7,”, “soil” for “soil or into the soil (depth: 1 cm)”, “20” for “30”, “above-mentioned” for “following”

[18] = tested on: Paddy rice (variety: Nipponbare); assay: Test Example 5: pot test, growth inhibition of the paddy rice; type: in vivo; conditions: 20 days after sowing, dosage a.i. g per 1 kg of seeds: Sulcotrione 1.0, Imazosulfuron 1.0, Oxadiargyl 0.15
Text: as §4

[19] = tested on: paddy rice varieties Habataki, Takanari, Momiroman, Mizuhochikara, Ruriaoba and Odorokimochi; conditions: Japanese Journal of Crop Science 79 (Extra 1); cited from earlier work
[20] = Surface sowing of treated rice seed

CCCCOCN(C(=O)CCl)c1c(CC)cccc1CC [Butachlor, butachlor]
Growth inhibition rate, Scirpus juncoides Roxb. ([1]; Sowing into soil (depth 1 cm)): 0 (Growth inhibition rate of 0 to 9%)
Growth inhibition rate, Scirpus juncoides Roxb. ([1]; Surface sowing): 0 (Growth inhibition rate of 0 to 9%)
Growth inhibition rate, Echinochloa oryzicola ([2]; Sowing into soil (depth 1 cm)): 5 (Growth inhibition rate of 46 to 54%)
Growth inhibition rate, Echinochloa oryzicola ([2]; Surface sowing): 7 (Growth inhibition rate of 64 to 72%)

CC1(C)CON(Cc2ccccc2Cl)C1=O [Clomazone, clomazone]
Growth inhibition rate, Echinochloa oryzicola [3]: 9 (Growth inhibition rate of 82 to 90%)

Cc1cccc(C2CC2)c1Oc1nnc(Cl)cc1OC(=O)N1CCOCC1 [Compound (I), 6-chloro-3-(2-cyclopropyl-6-methylphenoxy)pyridazin-4-yl morpholin-4-carboxylate]
Growth inhibition rate, Monochoria vaginalis ([4]; Sowing into soil (depth 1 cm)): 9 (Growth inhibition rate of 82 to 90%)
Growth inhibition rate, Monochoria vaginalis [4, 20]: 10 (Growth inhibition rate of 91 to 100%)
Growth inhibition rate, Lindernia procumbens ([5]; Sowing into soil (depth 1 cm)): 8 (Growth inhibition rate of 73 to 81%)
Growth inhibition rate, Lindernia procumbens [5, 20]: 10 (Growth inhibition rate of 91 to 100%)
Growth inhibition rate, Paddy rice [6]: 0 (Growth inhibition rate of 0 to 9%)
Growth inhibition rate, Monochoria vaginalis [7]: 10 (Growth inhibition rate of 91 to 100%)
Growth inhibition rate, Lindernia procumbens [8]: 10 (Growth inhibition rate of 91 to 100%)
Growth inhibition rate, Paddy rice ([9]; Sowing into soil (depth 1 cm)): 5 (Growth inhibition rate of 46 to 54%)
Growth inhibition rate, Paddy rice ([9]; Surface sowing): 0 (Growth inhibition rate of 0 to 9%)

COc1cc(OC)nc(NC(=O)NS(=O)(=O)c2c(Cl)nc3ccccn23)n1 [Imazosulfuron, imazosulfuron]
Growth inhibition rate, Scirpus juncoides Roxb. ([10]; Sowing into soil (depth 1 cm)): 9 (Growth inhibition rate of 82 to 90%)
Growth inhibition rate, Scirpus juncoides Roxb. ([10]; Surface sowing): 10 (Growth inhibition rate of 91 to 100%)
Growth inhibition rate, Lindernia procumbens ([11]; Sowing into soil (depth 1 cm)): 10 (Growth inhibition rate of 91 to 100%)
Growth inhibition rate, Lindernia procumbens ([11]; Surface sowing): 10 (Growth inhibition rate of 91 to 100%)
Growth inhibition rate, Monochoria vaginalis [7]: 10 (Growth inhibition rate of 91 to 100%)
Growth inhibition rate, Lindernia procumbens [8]: 10 (Growth inhibition rate of 91 to 100%)

CO/N=C(/C)c1cccc(Oc2nc(OC)cc(OC)n2)c1C(=O)OC [Pyriminobac-methyl, pyriminobac-methyl]
Growth inhibition rate, Scirpus juncoides Roxb. ([1]; Sowing into soil (depth 1 cm)): 0 (Growth inhibition rate of 0 to 9%)
Growth inhibition rate, Scirpus juncoides Roxb. ([1]; Surface sowing): 0 (Growth inhibition rate of 0 to 9%)
Growth inhibition rate, Echinochloa oryzicola ([2]; Sowing into soil (depth 1 cm)): 10 (Growth inhibition rate of 91 to 100%)
Growth inhibition rate, Echinochloa oryzicola ([2]; Surface sowing): 10 (Growth inhibition rate of 91 to 100%)
Growth inhibition rate, Paddy rice ([12]; Sowing into soil (depth 1 cm)): 3 (Growth inhibition rate of 28 to 36%)
Growth inhibition rate, Paddy rice ([12]; Surface sowing): 0 (Growth inhibition rate of 0 to 9%)
Growth inhibition rate, Echinochloa oryzicola [13]: 10 (Growth inhibition rate of 91 to 100%)
Growth inhibition rate, Scirpus juncoides Roxb. [14]: 0 (Growth inhibition rate of 0 to 9%)
Growth inhibition rate, Paddy rice [15]: 0 (Growth inhibition rate of 0 to 9%)

COCc1cccc(C(O)c2nc(OC)cc(OC)n2)c1NS(=O)(=O)C(F)F (stereo not shown) [Pyrimisulfan, pyrimisulfan]
Growth inhibition rate, Scirpus juncoides Roxb. ([1]; Sowing into soil (depth 1 cm)): 10 (Growth inhibition rate of 91 to 100%)
Growth inhibition rate, Scirpus juncoides Roxb. ([1]; Surface sowing): 10 (Growth inhibition rate of 91 to 100%)
Growth inhibition rate, Echinochloa oryzicola ([2]; Sowing into soil (depth 1 cm)): 8 (Growth inhibition rate of 73 to 81%)
Growth inhibition rate, Echinochloa oryzicola ([2]; Surface sowing): 10 (Growth inhibition rate of 91 to 100%)
Growth inhibition rate, Echinochloa oryzicola [13]: 10 (Growth inhibition rate of 91 to 100%)
Growth inhibition rate, Scirpus juncoides Roxb. [14]: 10 (Growth inhibition rate of 91 to 100%)
Growth inhibition rate, Monochoria vaginalis [16]: 10 (Growth inhibition rate of 91 to 100%)
Growth inhibition rate, Lindernia procumbens [17]: 10 (Growth inhibition rate of 91 to 100%)

CS(=O)(=O)c1ccc(C(=O)C2C(=O)CCCC2=O)c(Cl)c1 [Sulcotrione, sulcotrione]
Growth inhibition rate, Scirpus juncoides Roxb. ([10]; Sowing into soil (depth 1 cm)): 8 (Growth inhibition rate of 73 to 81%)
Growth inhibition rate, Scirpus juncoides Roxb. ([10]; Surface sowing): 9 (Growth inhibition rate of 82 to 90%)
Growth inhibition rate, Lindernia procumbens ([11]; Sowing into soil (depth 1 cm)): 10 (Growth inhibition rate of 91 to 100%)
Growth inhibition rate, Lindernia procumbens ([11]; Surface sowing): 10 (Growth inhibition rate of 91 to 100%)
Growth inhibition rate, Paddy rice [6]: 0 (Growth inhibition rate of 0 to 9%)
Growth inhibition rate, Monochoria vaginalis [7]: 10 (Growth inhibition rate of 91 to 100%)
Growth inhibition rate, Lindernia procumbens [8]: 10 (Growth inhibition rate of 91 to 100%)
Growth inhibition rate, Paddy rice ([18]; Sowing into soil (depth 1 cm)): 3 (Growth inhibition rate of 28 to 36%)
Growth inhibition rate, Paddy rice ([18]; Surface sowing): 0 (Growth inhibition rate of 0 to 9%)

COc1ccsc1CN(C(=O)CCl)c1c(C)cccc1C [Thenylchlor, thenylchlor]
Growth inhibition rate, Monochoria vaginalis ([4]; Sowing into soil (depth 1 cm)): 6 (Growth inhibition rate of 55 to 63%)
Growth inhibition rate, Monochoria vaginalis [4, 20]: 7 (Growth inhibition rate of 64 to 72%)
Growth inhibition rate, Lindernia procumbens ([5]; Sowing into soil (depth 1 cm)): 8 (Growth inhibition rate of 73 to 81%)
Growth inhibition rate, Lindernia procumbens [5, 20]: 9 (Growth inhibition rate of 82 to 90%)
Growth inhibition rate, Paddy rice ([9]; Sowing into soil (depth 1 cm)): 9 (Growth inhibition rate of 82 to 90%)
Growth inhibition rate, Paddy rice ([9]; Surface sowing): 6 (Growth inhibition rate of 55 to 63%)

CS(=O)(=O)c1ccc(C(=O)C2=C(Sc3ccccc3)C3CCC(C3)C2=O)c(Cl)c1 (stereo not shown) [benzobicyclon]
Sensitivity of paddy rice variety to the herbicide [19]: show sensitivity

CS(=O)(=O)c1ccc(C(=O)C2C(=O)CCCC2=O)c([N+](=O)[O-])c1 [mesotrione]
Sensitivity of paddy rice variety to the herbicide [19]: show sensitivity

oxadiargyl
Growth inhibition rate, Scirpus juncoides Roxb. ([10]; Sowing into soil (depth 1 cm)): 1 (Growth inhibition rate of 10 to 18%)
Growth inhibition rate, Scirpus juncoides Roxb. ([10]; Surface sowing): 2 (Growth inhibition rate of 19 to 27%)
Growth inhibition rate, Lindernia procumbens ([11]; Sowing into soil (depth 1 cm)): 10 (Growth inhibition rate of 91 to 100%)
Growth inhibition rate, Lindernia procumbens ([11]; Surface sowing): 10 (Growth inhibition rate of 91 to 100%)
